Assay [1] has as its system HCC70 cells. Briefly: Cell bioactivity detection (CyQuant), HCC70. In kind it is cell-based. As to conditions: Homo sapiens, HCC70, 72 h, human breast cancer cells HCC70, 72 hours. On the procedure:
(§1) Trypsinization was performed on A2780 and HCC70 cells. Cell suspensions were respectively transferred to 15 mL of centrifuge tubes and centrifuged at 800 rpm for 5 min. The supernatant was discarded. Resuspension in a fresh culture medium (RPMI 1640+10% FBS) was performed. After counting, the cells were inoculated at 2000/well in a 384-well plate (50 φL of 1640+10% FBS culture medium was added to the 2nd line and the 23rd line of the 384-well plate, and 50 μL of DPBS was added to surrounding wells). Incubation in an incubator (37° C., 5% CO2) was performed overnight.
(§2) The compound was added to the well plate the next day. The compound had the highest concentration of 10 μM and was diluted at the ratio of 1:4 to form 9 concentrations. The positive compound Paclitaxel had the highest concentration of 1 μM and was diluted at the ratio of 1:3 to form 9 concentrations. The DMSO content of each well was unified to 0.2%. A cell plate was centrifuged at 800 rpm for 30 seconds. Incubation for 72 hours in an incubator (37° C., 5% CO2) was performed. On the fourth day, a Cyquant reagent (3×) was prepared according to kit instructions. Each 384-well plate was prepared in the following proportions: DPBS: 11.568 mL, CyQuant® Direct nucleic acid stain: 72 μL, CyQuant® Direct background suppressor: 360 ILL. The plates were uniformly mixed and placed for standby application at room temperature. The cell plate was taken out and placed at room temperature to be balanced for 30 min. 25 μL of Cyquant reagent (3×) was dispensed to the cells in each well of the 384-well plates by using a Multi-drop dispenser. Incubation at 37° C. for 60 or more minutes was performed. The plates were read by Acumen (Acumen was configured to have a 488 nm excitation wavelength). IC50 results were analyzed by XLFIT5 of the IDBS company.

The test system of assay [2] is A2780 cells. Kind of assay: Cell bioactivity detection (CyQuant), A2780. Type of assay: cell-based, human. Particulars: Homo sapiens, A2780, 72 h, ovarian carcinoma cells A2780, 72 hours. On the procedure:
as §1, §2

Assay [3] concerns the target CDK7/cyclin H/MAT1 complex (Homo sapiens (Human), UniProt P50613). Briefly: In vitro enzymatic inhibitory activity test, CDK7. In kind it is biochemical. Particulars: Caliper mobility shift, 180 min at 27° C. On the procedure:
(§3) CDK7/CyclinH was diluted in a test buffer solution (20 mM MES PH6.75, 0.01% Tween20, 50 ug/mL BSA, 6 mM MgCl2) to obtain a corresponding enzyme solution with a 2.4× concentration. CDK2/CyclinE1 was diluted in a test buffer solution (20 mM MES PH6.75, 0.01% Tween20, 50 ug/mL BSA, 6 mM MgCl2) to obtain a corresponding enzyme solution with a 2.4× concentration. CDK9/CyclinT1 was diluted in a test buffer solution (20 mM MES PH6.75, 0.01% Tween20, 50 ug/mL BSA, 10 mM MgCl2) to obtain a corresponding enzyme solution with a 2.4× concentration. CDK12/CyclinK was diluted in a test buffer solution (80 mM MES PH6.5, 0.01% Tween20, 50 ug/mL BSA, 10 mM MgCl2) to obtain a corresponding enzyme solution with a 2.4× concentration. The compounds were dissolved in dimethyl sulfoxide (DMSO) at a concentration of 10 mM. […] 2 ul of a test compound solution was mixed with 5 ul of enzyme solution. After incubating for 10 min, 5 ul of the mixed solution of the polypeptide substrate and ATP was added. After incubating at 27° C. for 180 min, 4 uL of EDTA with a 120 mM concentration was added to each sample to stop the reaction. […] A CDK9/cyclin TI complex (8 nM) and a “5-FAM-CDK9tide” peptide substrate (2 μM, synthetic fluorophore labeled peptide having the following sequence: 5-FAM-GSRTPMY-NH2, where 5-FAM was as defined above, and NH2 represented C-terminal amide) were used for testing the CDK9 inhibition. […] A CDK2/cyclin E1 complex (0.5 nM) and the “5-FAM-CDK7tide” (2 μM) as defined above were used for testing the CDK2 inhibition.
(§4) Electrophoretic separation was performed on Caliper EZ Reader II by means of a fluorogenic substrate and a phosphorylated product to analyze the reaction mixture. Data were calculated by using GraphPad Prism version 6.0. IC50 values were adjusted by means of a nonlinear regression model using a dose-response curve.

Assay [4] concerns the target CDK2/cyclin E1 complex (Homo sapiens (Human), UniProt P24941). Kind of assay: In vitro enzymatic inhibitory activity test, CDK2. As to conditions: Caliper mobility shift, 180 min at 27° C. Type of assay: biochemical. On the procedure:
CDK7/CyclinH was diluted in a test buffer solution (20 mM MES PH6.75, 0.01% Tween20, 50 ug/mL BSA, 6 mM MgCl2) to obtain a corresponding enzyme solution with a 2.4× concentration. CDK2/CyclinE1 was diluted in a test buffer solution (20 mM MES PH6.75, 0.01% Tween20, 50 ug/mL BSA, 6 mM MgCl2) to obtain a corresponding enzyme solution with a 2.4× concentration. CDK9/CyclinT1 was diluted in a test buffer solution (20 mM MES PH6.75, 0.01% Tween20, 50 ug/mL BSA, 10 mM MgCl2) to obtain a corresponding enzyme solution with a 2.4× concentration. CDK12/CyclinK was diluted in a test buffer solution (80 mM MES PH6.5, 0.01% Tween20, 50 ug/mL BSA, 10 mM MgCl2) to obtain a corresponding enzyme solution with a 2.4× concentration. […] 2 ul of a test compound solution was mixed with 5 ul of enzyme solution. After incubating for 10 min, 5 ul of the mixed solution of the polypeptide substrate and ATP was added. After incubating at 27° C. for 180 min, 4 uL of EDTA with a 120 mM concentration was added to each sample to stop the reaction. […] A CDK9/cyclin TI complex (8 nM) and a “5-FAM-CDK9tide” peptide substrate (2 μM, synthetic fluorophore labeled peptide having the following sequence: 5-FAM-GSRTPMY-NH2, where 5-FAM was as defined above, and NH2 represented C-terminal amide) were used for testing the CDK9 inhibition. […] A CDK2/cyclin E1 complex (0.5 nM) and the “5-FAM-CDK7tide” (2 μM) as defined above were used for testing the CDK2 inhibition.
as §4

Assay [5] deals with CDK12(aa686-1082)/cyclin K complex (Homo sapiens (Human), UniProt Q9NYV4). Kind of assay: In vitro enzymatic inhibitory activity test, CDK12. In kind it is biochemical. As to conditions: Caliper mobility shift, 180 min at 27° C. As for the experimental part:
as §3, §4

Assay [6] deals with CDK9/CyclinT1 (Homo sapiens (Human), UniProt P50750). Kind of assay: In vitro enzymatic inhibitory activity test, CDK9. In kind it is biochemical. Particulars: Caliper mobility shift, 180 min at 27° C. On the procedure: as §3, §4

Each structure is given as a SMILES string.

Chain of CDK9/CyclinT1 (P50750 whole entry, species assumed): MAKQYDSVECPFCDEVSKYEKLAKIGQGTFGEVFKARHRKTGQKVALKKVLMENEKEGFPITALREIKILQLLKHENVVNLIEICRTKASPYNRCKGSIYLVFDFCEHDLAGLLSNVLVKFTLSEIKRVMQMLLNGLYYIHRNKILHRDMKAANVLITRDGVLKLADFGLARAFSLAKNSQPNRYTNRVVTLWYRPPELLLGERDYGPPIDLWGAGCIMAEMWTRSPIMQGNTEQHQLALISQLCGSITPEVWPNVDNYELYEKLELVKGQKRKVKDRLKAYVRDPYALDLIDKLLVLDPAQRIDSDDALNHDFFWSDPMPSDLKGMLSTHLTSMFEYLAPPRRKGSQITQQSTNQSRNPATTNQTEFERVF
Chain of CDK9/CyclinT1 (O60563 whole entry partner, species assumed): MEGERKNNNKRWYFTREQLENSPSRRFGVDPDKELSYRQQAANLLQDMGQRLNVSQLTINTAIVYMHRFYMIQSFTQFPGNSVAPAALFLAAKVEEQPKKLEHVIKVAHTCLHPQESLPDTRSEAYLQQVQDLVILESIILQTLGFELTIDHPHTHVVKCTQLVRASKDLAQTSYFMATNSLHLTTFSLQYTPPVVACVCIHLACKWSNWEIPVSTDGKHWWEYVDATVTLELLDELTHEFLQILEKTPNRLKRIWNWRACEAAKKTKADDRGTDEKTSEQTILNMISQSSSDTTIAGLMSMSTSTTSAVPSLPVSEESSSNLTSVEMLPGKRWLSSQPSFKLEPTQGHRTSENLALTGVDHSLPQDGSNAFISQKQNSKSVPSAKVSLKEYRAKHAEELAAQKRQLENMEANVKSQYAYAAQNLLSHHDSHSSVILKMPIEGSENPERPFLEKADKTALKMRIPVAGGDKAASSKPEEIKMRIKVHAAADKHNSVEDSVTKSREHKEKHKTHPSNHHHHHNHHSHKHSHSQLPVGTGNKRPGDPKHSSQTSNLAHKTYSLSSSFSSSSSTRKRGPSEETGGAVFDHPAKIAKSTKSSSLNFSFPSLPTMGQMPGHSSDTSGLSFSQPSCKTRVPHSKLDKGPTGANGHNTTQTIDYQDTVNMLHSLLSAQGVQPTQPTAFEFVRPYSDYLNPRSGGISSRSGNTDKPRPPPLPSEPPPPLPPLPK
Chain of CDK12(aa686-1082)/cyclin K complex (Q9NYV4 686-1082, species assumed): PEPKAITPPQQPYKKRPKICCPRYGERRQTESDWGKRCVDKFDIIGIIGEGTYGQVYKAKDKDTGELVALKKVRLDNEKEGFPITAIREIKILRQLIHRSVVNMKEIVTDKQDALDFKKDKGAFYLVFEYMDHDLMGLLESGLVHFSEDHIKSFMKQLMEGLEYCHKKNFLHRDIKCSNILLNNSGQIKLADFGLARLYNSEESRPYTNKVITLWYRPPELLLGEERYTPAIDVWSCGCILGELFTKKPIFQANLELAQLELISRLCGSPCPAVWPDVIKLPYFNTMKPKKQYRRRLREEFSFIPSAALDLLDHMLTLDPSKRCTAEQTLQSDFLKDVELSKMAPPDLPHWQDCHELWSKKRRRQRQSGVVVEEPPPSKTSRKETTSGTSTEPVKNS
Chain of CDK12(aa686-1082)/cyclin K complex (O75909 whole entry partner, species assumed, the tested form may be a part): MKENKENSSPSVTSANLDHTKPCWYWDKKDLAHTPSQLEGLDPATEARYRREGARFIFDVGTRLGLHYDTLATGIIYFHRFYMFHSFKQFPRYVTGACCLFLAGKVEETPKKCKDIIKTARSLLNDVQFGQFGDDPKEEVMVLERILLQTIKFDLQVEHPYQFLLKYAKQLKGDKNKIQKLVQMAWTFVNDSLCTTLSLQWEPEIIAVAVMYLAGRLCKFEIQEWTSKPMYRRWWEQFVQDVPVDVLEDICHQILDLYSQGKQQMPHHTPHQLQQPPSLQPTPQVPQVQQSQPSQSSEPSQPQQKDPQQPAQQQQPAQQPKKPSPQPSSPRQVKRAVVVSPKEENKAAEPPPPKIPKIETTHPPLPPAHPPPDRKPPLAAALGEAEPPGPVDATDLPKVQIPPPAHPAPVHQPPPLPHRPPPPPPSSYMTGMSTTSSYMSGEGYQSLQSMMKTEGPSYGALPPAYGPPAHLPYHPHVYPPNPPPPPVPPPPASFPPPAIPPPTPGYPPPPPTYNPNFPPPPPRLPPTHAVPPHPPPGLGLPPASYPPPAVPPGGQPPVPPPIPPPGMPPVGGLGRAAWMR
Chain of CDK7/cyclin H/MAT1 complex (P50613 whole entry, species assumed): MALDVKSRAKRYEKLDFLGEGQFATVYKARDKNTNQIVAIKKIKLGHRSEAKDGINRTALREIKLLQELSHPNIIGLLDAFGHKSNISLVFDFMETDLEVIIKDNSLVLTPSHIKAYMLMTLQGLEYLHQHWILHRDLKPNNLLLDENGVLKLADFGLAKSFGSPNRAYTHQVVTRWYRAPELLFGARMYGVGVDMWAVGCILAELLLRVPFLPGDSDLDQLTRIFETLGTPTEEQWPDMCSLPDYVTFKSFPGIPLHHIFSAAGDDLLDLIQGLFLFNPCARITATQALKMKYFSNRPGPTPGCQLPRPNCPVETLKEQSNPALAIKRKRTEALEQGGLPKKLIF
Chain of CDK7/cyclin H/MAT1 complex (P51946 whole entry partner, species assumed): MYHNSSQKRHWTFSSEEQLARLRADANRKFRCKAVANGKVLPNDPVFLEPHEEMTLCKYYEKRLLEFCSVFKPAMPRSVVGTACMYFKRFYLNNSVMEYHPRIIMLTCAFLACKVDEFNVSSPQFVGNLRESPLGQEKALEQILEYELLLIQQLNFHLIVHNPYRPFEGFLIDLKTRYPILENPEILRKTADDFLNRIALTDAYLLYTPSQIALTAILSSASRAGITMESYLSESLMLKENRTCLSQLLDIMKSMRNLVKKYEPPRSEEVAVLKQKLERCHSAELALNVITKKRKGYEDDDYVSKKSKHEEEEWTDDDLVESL
Chain of CDK7/cyclin H/MAT1 complex (P51948 whole entry partner, species assumed): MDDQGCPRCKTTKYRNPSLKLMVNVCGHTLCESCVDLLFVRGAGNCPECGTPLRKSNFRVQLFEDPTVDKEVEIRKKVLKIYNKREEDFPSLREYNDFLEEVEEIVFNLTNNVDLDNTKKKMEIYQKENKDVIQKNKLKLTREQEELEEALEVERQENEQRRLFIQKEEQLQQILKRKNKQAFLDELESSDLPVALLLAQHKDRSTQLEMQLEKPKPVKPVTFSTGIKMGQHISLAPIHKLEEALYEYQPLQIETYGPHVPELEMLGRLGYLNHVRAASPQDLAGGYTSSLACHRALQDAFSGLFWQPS

As for `FC(F)(F)c1cnc(N[C@H]2CCCNC2)nc1-c1c[nH]c2nc(N3CCC4(COC4)C3)ccc12` [Compound 8, (S)-4-(6-(2-oxa-6-azaspiro[3.4]octan-6-yl)-1H-pyrrolo[2,3-b]pyridin-3-yl)-N-(piperidin-3-yl)-5-(trifluoromethyl)pyrimidine-2-amine], the half-inhibitory concentration (IC50) in assay [1] was determined as 16 nM; in assay [2], 19.1 nM; in assay [3] it was 40.3 nM; in assay [4], 17500 nM; in assay [5] it was 9320 nM; in assay [6], 15900 nM.
On to `FC(F)(F)c1cnc(N[C@H]2CCCNC2)nc1-c1c[nH]c2nc(N3CCC4(CCOC4)CC3)ccc12` [Compound 9, (S)-4-(6-(2-oxa-8-azaspiro[4.5]decan-8-yl)-1H-pyrrolo[2,3-b]pyridin-3-yl)-N-(piperidin-3-yl)-5-(trifluoromethyl)pyrimidine-2-amine], for which the IC50 in assay [1] was 44 nM; in assay [2], 36.3 nM; in assay [3], 28.7 nM; in assay [4], 7290 nM; in assay [5] it was 1270 nM; in assay [6], 4530 nM.
For `FC(F)(F)c1cnc(N[C@H]2CCCNC2)nc1-c1c[nH]c2nc(N3CCCC4(CCOCC4)C3)ccc12` [Compound 10, (S)-4-(6-(9-oxa-2-azaspiro[5.5]undecan-2-yl)-1H-pyrrolo[2,3-b]pyridin-3-yl)-N-(piperidin-3-yl)-5-(trifluoromethyl)pyrimidine-2-amine], the IC50 was found to be 102 nM in assay [1]; 109 nM in assay [2]; 27 nM in assay [3]; 2090 nM in assay [4]; 823 nM in assay [5]; 4010 nM in assay [6].
As to `FC(F)(F)c1cnc(N[C@H]2CCCNC2)nc1-c1c[nH]c2nc(N3CC4(CCOC4)C3)ccc12` [Compound 11, (S)-4-(6-(6-oxa-2-azaspiro[3.4]octan-2-yl)-1H-pyrrolo[2,3-b]pyridin-3-yl)-N-(piperidin-3-yl)-5-(trifluoromethyl)pyrimidine-2-amine], the IC50 in assay [1] was determined as 48 nM; in assay [2], 41.2 nM; in assay [3] it was 27.8 nM; in assay [4] it was 6450 nM; in assay [5] it was 1950 nM; in assay [6], 4230 nM.
Consider `C[C@@H]1OCC2(CCN(c3ccc4c(-c5nc(N[C@H]6CCCNC6)ncc5C(F)(F)F)c[nH]c4n3)CC2)[C@@H]1N` [Compound 12, (3S,4S)-3-methyl-8-(3-(2-(((S)-piperidin-3-yl)amino)-5-(trifluoromethyl)pyrimidin-4-yl)-1H-pyrrol[2,3-b]pyridin-6-yl)-2-oxa-8-azaspiro[4.5]decan-4-amine], for which the IC50 was 69 nM in assay [1]; 90.1 nM in assay [2]; 17.4 nM in assay [3]; 3790 nM in assay [4]; 1170 nM in assay [5]; 2790 nM in assay [6].
For `FC(F)(F)c1cnc(N[C@H]2CCCNC2)nc1-c1c[nH]c2nc(N3C[C@@H]4C[C@H]3CO4)ccc12` [Compound 13, 4-(6-((1S,4S)-2-oxa-5-azabicyclo[2.2.1]heptan-5-yl)-1H-pyrrolo[2,3-b]pyridin-3-yl)-N—((S)-piperidin-3-yl)-5-(trifluoromethyl)pyrimidine-2-amine], the IC50 was determined as 29 nM in assay [1]; 35.2 nM in assay [2]; 7.05 nM in assay [3]; 2670 nM in assay [4]; 2640 nM in assay [5]; 3430 nM in assay [6].
Take `FC(F)(F)c1cnc(N[C@H]2CCCNC2)nc1-c1c[nH]c2nc(N3CC4(COC4)C3)ccc12` [Compound 14, (S)-4-(6-(2-oxa-6-azaspiro[3.3]heptan-6-yl)-1H-pyrrolo[2,3-b]pyridin-3-yl)-N-(piperidin-3-yl)-5-(trifluoromethyl)pyrimidine-2-amine]: the IC50 in assay [1] was found to be 24 nM; in assay [2], 11 nM; in assay [3] it was 7.11 nM; in assay [4], 3290 nM; in assay [5], 555 nM; in assay [6], 1670 nM.
Regarding `FC(F)(F)c1cnc(N[C@H]2CCCNC2)nc1-c1c[nH]c2nc(N3CCC4(CC3)COC4)ccc12` [Compound 15, (S)-4-(6-(2-oxa-7-azaspiro[3.5]nonan-7-yl)-1H-pyrrolo[2,3-b]pyridin-3-yl)-N-(piperidin-3-yl)-5-(trifluoromethyl)pyrimidine-2-amine], the IC50 amounted to 12 nM in assay [1]; 10 nM in assay [2]; 16.5 nM in assay [3]; 4150 nM in assay [4]; 1120 nM in assay [5]; 3320 nM in assay [6].
On to `FC(F)(F)c1cnc(N[C@H]2CCCNC2)nc1-c1c[nH]c2nc(N3CCC4(CCO4)CC3)ccc12` [Compound 16, (S)-4-(6-(1-oxa-7-azaspiro[3.5]nonan-7-yl)-1H-pyrrolo[2,3-b]pyridin-3-yl)-N-(piperidin-3-yl)-5-(trifluoromethyl)pyrimidine-2-amine], for which the concentration for half-maximal inhibition (IC50) came out at 13 nM in assay [1]; 11 nM in assay [2]; 10.8 nM in assay [3]; 2880 nM in assay [4]; 1230 nM in assay [5]; 3580 nM in assay [6].
On to `FC(F)(F)c1cnc(N[C@H]2CCCNC2)nc1-c1c[nH]c2nc(N3CC4(CCCOC4)C3)ccc12` [Compound 17, (S)-4-(6-(6-oxa-2-azaspiro[3.5]nonan-2-yl)-1H-pyrrolo[2,3-b]pyridin-3-yl)-N-(piperidin-3-yl)-5-(trifluoromethyl)pyrimidine-2-amine], for which the IC50 stood at 102 nM in assay [1]; 212 nM in assay [2]; 20 nM in assay [3]; 5480 nM in assay [4]; 1630 nM in assay [5]; 4250 nM in assay [6].

By IC50 is commonly meant the concentration at which inhibition is half-maximal.

The values above are taken from patent US20240132489A1, “AROMATIC HETEROCYCLIC COMPOUND, PHARMACEUTICAL COMPOSITION, AND USE THEREOF” (GT APEIRON THERAPEUTICS LIMITED, priority 2020, published 2024).
